Measured values as given in ChEMBL document CHEMBL6071176, “Development of Phloroglucinol-Linked Tris-Quaternary Ammonium Salt Antimicrobial Peptide Mimics with Low Cytotoxicity and Broad-Spectrum Antibacterial Activity” (J Med Chem, 2024).
Converted amounts (≈) assume the structure as drawn.

Key:
[1] = system: Escherichia coli; assay: Antimicrobial activity against Escherichia coli assessed as inhibition of growth incubated for 18 hrs by CLSI guidelines based assay; type: functional
[2] = Selectivity index, ratio of HC50 for sheep red blood cells to MIC for Staphylococcus aureus; type: toxicity, cell-based, RBC; details: read-out: Selectivity Index
[3] = Hemolytic activity in sheep red blood cells measured after 1 hr incubation; type: toxicity, cell-based, Ovis aries, Erythrocyte
[4] = system: Enterococcus faecalis; assay: Antimicrobial activity against Enterococcus faecalis assessed as inhibition of growth incubated for 18 hrs by CLSI guidelines based assay; type: functional
[5] = system: Staphylococcus aureus; assay: Antimicrobial activity against Staphylococcus aureus assessed as inhibition of growth incubated for 18 hrs by CLSI guidelines based assay; type: functional
[6] = system: Stenotrophomonas maltophilia; assay: Antimicrobial activity against Stenotrophomonas maltophilia assessed as inhibition of growth incubated for 18 hrs by CLSI guidelines based assay; type: functional
[7] = Cytotoxicity against human Gastric mucosal cells measured after 24 hrs by CCK-8 assay; type: toxicity, cell-based, Gastric mucosal cell

Row | SMILES | MIC [1] | selectivity ratio [2] | HC50 at 1 h [3] | MIC [4] | MIC [5] | MIC [6] | CC50 at 24 h [7]
1 | CCCCCCCCCCCC[N+](C)(C)CCCCCOc1cc(OCCCCC[N+](C)(C)CCCCCCCCCCCC)cc(OCCCCC[N+](C)(C)CCCCCCCCCCCC)c1.[Br-].[Br-].[Br-] | 64 µg/mL | 0.75 | 12 µg/mL | 2 µg/mL | 16 µg/mL | 64 µg/mL | 
2 | C[N+](C)(CCCCc1ccccc1)CCCOc1cc(OCCC[N+](C)(C)CCCCc2ccccc2)cc(OCCC[N+](C)(C)CCCCc2ccccc2)c1.[Br-].[Br-].[Br-] | 128 µg/mL | > 160 | > 1280 µg/mL | 16 µg/mL | 8 µg/mL | 128 µg/mL | 
3 | CCCCCCCCCCCC[N+](C)(C)CCOc1ccccc1 [DOMIPHEN] |  |  |  |  |  |  | 74.5 µg/mL
4 | CCCCCCCCCC[N+](C)(C)CCCOc1cc(OCCC[N+](C)(C)CCCCCCCCCC)cc(OCCC[N+](C)(C)CCCCCCCCCC)c1.[Br-].[Br-].[Br-] | 4 µg/mL | 54 | 54 µg/mL | 1 µg/mL | 1 µg/mL | 4 µg/mL | 
5 | CCCCCCCCCC[N+](C)(C)CCCCOc1cc(OCCCC[N+](C)(C)CCCCCCCCCC)cc(OCCCC[N+](C)(C)CCCCCCCCCC)c1.[Br-].[Br-].[Br-] | 4 µg/mL | 8.5 | 34 µg/mL | 0.5 µg/mL | 4 µg/mL | 4 µg/mL | 
6 | CCCC[N+](C)(C)CCCCOc1cc(OCCCC[N+](C)(C)CCCC)cc(OCCCC[N+](C)(C)CCCC)c1.[Br-].[Br-].[Br-] | 128 µg/mL | > 10 | > 1280 µg/mL | 128 µg/mL | 128 µg/mL | 128 µg/mL | 
7 | C[N+](C)(CCCCOc1ccccc1)CCCOc1cc(OCCC[N+](C)(C)CCCCOc2ccccc2)cc(OCCC[N+](C)(C)CCCCOc2ccccc2)c1.[Br-].[Br-].[Br-] | 128 µg/mL | > 40 | > 1280 µg/mL | 64 µg/mL | 32 µg/mL | 128 µg/mL | 
8 | C[N+](C)(CCCCOc1ccccc1)CCCCOc1cc(OCCCC[N+](C)(C)CCCCOc2ccccc2)cc(OCCCC[N+](C)(C)CCCCOc2ccccc2)c1.[Br-].[Br-].[Br-] | 64 µg/mL | > 640 | > 1280 µg/mL | 4 µg/mL | 2 µg/mL | 32 µg/mL | 
9 | CCCCCCCC[N+](C)(C)CCCCOc1cccc(OCCCC[N+](C)(C)CCCCCCCC)c1OCCCC[N+](C)(C)CCCCCCCC.[Br-].[Br-].[Br-] | 2 µg/mL | 847 | 847 µg/mL | 1 µg/mL | 1 µg/mL | 1 µg/mL | 
10 | C=C[C@]1(C)C[C@@H](OC(=O)CSC(C)(C)CNC(=O)[C@H](N)C(C)C)[C@]2(C)[C@H](C)CC[C@]3(CCC(=O)[C@H]32)[C@@H](C)[C@@H]1O [VALNEMULIN] |  |  |  |  |  |  | 45.7 µg/mL (≈ 80.9 µM)
11 | CCCCCCCCCC[N+](C)(C)CCCCCOc1cc(OCCCCC[N+](C)(C)CCCCCCCCCC)cc(OCCCCC[N+](C)(C)CCCCCCCCCC)c1.[Br-].[Br-].[Br-] | 4 µg/mL | 4 | 16 µg/mL | 2 µg/mL | 4 µg/mL | 4 µg/mL | 
12 | C[N+](C)(CCCOc1cc(OCCC[N+](C)(C)CCCc2ccccc2)cc(OCCC[N+](C)(C)CCCc2ccccc2)c1)CCCc1ccccc1.[Br-].[Br-].[Br-] | > 128 µg/mL | > 40 | > 1280 µg/mL | 32 µg/mL | 32 µg/mL | > 128 µg/mL | 
13 | C[N+](C)(CCCCCOc1ccccc1)CCCCOc1cc(OCCCC[N+](C)(C)CCCCCOc2ccccc2)cc(OCCCC[N+](C)(C)CCCCCOc2ccccc2)c1.[Br-].[Br-].[Br-] | 16 µg/mL | > 1280 | > 1280 µg/mL | 2 µg/mL | 1 µg/mL | 16 µg/mL | 
14 | CCCCCCCC[N+](C)(C)CCCCOc1ccc(OCCCC[N+](C)(C)CCCCCCCC)c(OCCCC[N+](C)(C)CCCCCCCC)c1.[Br-].[Br-].[Br-] | 2 µg/mL | > 2560 | > 1280 µg/mL | 0.5 µg/mL | 0.5 µg/mL | 1 µg/mL | 
15 | CS(=O)(=O)c1ccc([C@@H](O)[C@@H](CF)NC(=O)C(Cl)Cl)cc1 [FLORFENICOL] |  |  |  |  |  |  | 121 µg/mL (≈ 339 µM)
16 | C[N+](C)(CCCOc1ccccc1)CCCOc1cc(OCCC[N+](C)(C)CCCOc2ccccc2)cc(OCCC[N+](C)(C)CCCOc2ccccc2)c1.[Br-].[Br-].[Br-] | > 128 µg/mL | > 40 | > 1280 µg/mL | 64 µg/mL | 32 µg/mL | > 128 µg/mL | 
17 | CCCCCCCCCCCC[N+](C)(C)CCCCOc1cc(OCCCC[N+](C)(C)CCCCCCCCCCCC)cc(OCCCC[N+](C)(C)CCCCCCCCCCCC)c1.[Br-].[Br-].[Br-] | 8 µg/mL | 1.38 | 11 µg/mL | 4 µg/mL | 8 µg/mL | 32 µg/mL | 
18 | CCCCCC[N+](C)(C)CCCCOc1cc(OCCCC[N+](C)(C)CCCCCC)cc(OCCCC[N+](C)(C)CCCCCC)c1.[Br-].[Br-].[Br-] | 128 µg/mL | > 40 | > 1280 µg/mL | 8 µg/mL | 32 µg/mL | 128 µg/mL | 
19 | C[N+](C)(CCCCOc1cc(OCCCC[N+](C)(C)CCCOc2ccccc2)cc(OCCCC[N+](C)(C)CCCOc2ccccc2)c1)CCCOc1ccccc1.[Br-].[Br-].[Br-] | > 128 µg/mL | > 320 | > 1280 µg/mL | 2 µg/mL | 4 µg/mL | 64 µg/mL | 
20 | CCCC[N+](C)(C)CCCCCOc1cc(OCCCCC[N+](C)(C)CCCC)cc(OCCCCC[N+](C)(C)CCCC)c1.[Br-].[Br-].[Br-] | 32 µg/mL | > 20 | > 1280 µg/mL | 128 µg/mL | 64 µg/mL | 128 µg/mL | 
21 | C[N+](C)(CCCCOc1cc(OCCCC[N+](C)(C)CCCCc2ccccc2)cc(OCCCC[N+](C)(C)CCCCc2ccccc2)c1)CCCCc1ccccc1.[Br-].[Br-].[Br-] | 64 µg/mL | > 640 | > 1280 µg/mL | 4 µg/mL | 2 µg/mL | 32 µg/mL | 
22 | C[C@@H](O)[C@H]1C(=O)N2C(C(=O)O)=C(S[C@@H]3CN[C@H](C(=O)N(C)C)C3)[C@H](C)[C@H]12 [MEROPENEM] | 1 µg/mL (≈ 2.61 µM) | 2440 | 1220 µg/mL | 2 µg/mL (≈ 5.22 µM) | 0.5 µg/mL (≈ 1.3 µM) | 1 µg/mL (≈ 2.61 µM) | 
23 | C[N+](C)(CCCCCOc1ccccc1)CCCOc1cc(OCCC[N+](C)(C)CCCCCOc2ccccc2)cc(OCCC[N+](C)(C)CCCCCOc2ccccc2)c1.[Br-].[Br-].[Br-] | 32 µg/mL | > 320 | > 1280 µg/mL | 8 µg/mL | 4 µg/mL | 32 µg/mL | 
24 | C[N+](C)(CCCCCOc1cc(OCCCCC[N+](C)(C)CCCc2ccccc2)cc(OCCCCC[N+](C)(C)CCCc2ccccc2)c1)CCCc1ccccc1.[Br-].[Br-].[Br-] | 8 µg/mL | > 1280 | > 1280 µg/mL | 1 µg/mL | 1 µg/mL | 16 µg/mL | 
25 | CCCCCCCCCCCC[N+](C)(C)CCCOc1cc(OCCC[N+](C)(C)CCCCCCCCCCCC)cc(OCCC[N+](C)(C)CCCCCCCCCCCC)c1.[Br-].[Br-].[Br-] | 32 µg/mL | 1.25 | 10 µg/mL | 4 µg/mL | 8 µg/mL | 32 µg/mL | 
26 | C[N+](C)(CCCCOc1cc(OCCCC[N+](C)(C)CCCc2ccccc2)cc(OCCCC[N+](C)(C)CCCc2ccccc2)c1)CCCc1ccccc1.[Br-].[Br-].[Br-] | > 128 µg/mL | > 160 | > 1280 µg/mL | 16 µg/mL | 8 µg/mL | > 128 µg/mL | 
